# Data published in ChEMBL document CHEMBL1777763, “Discovery of a nortropanol derivative as a potent and orally active GPR119 agonist for type 2 diabetes” (Bioorg Med Chem Lett, 2011).
# pEC50, pIC50: −log10 of the molar value. Active and inactive are the calls of the source. The calls are words filed in the database; no cut-off is given here.
# Tests used:
# Rattus norvegicus [1] = experiment: AUC (0 to 6 hrs) in rat at 10 mg/kg, po; format: ADME, organism-based, Plasma; set-up: time < 6 hr, dose 10 mg/kg, route oral; details: in vivo
# [2] = Plasma concentration in mouse at 3 mg/kg, po after 1 hr; format: ADME, organism-based; set-up: dose 3 mg/kg, route oral
# Mus musculus [3] = experiment: Antidiabetic activity in overnight fasted mouse model assessed as blood glucose level at 3 mg/kg, po followed by 30 mins after administered 3 g/kg, po glucose by oral glucose tolerance test (reference value: 100 %); format: functional
# [4] = target: T1, Glucose-dependent insulinotropic receptor (Mus musculus, UniProt Q7TQP3); experiment: Agonist activity at mouse GPR119 expressed in HEK293 cells assessed as stimulation of cMAP level by cell-based cAMP assay; format: functional
# T1 sequence (Q7TQP3 whole entry): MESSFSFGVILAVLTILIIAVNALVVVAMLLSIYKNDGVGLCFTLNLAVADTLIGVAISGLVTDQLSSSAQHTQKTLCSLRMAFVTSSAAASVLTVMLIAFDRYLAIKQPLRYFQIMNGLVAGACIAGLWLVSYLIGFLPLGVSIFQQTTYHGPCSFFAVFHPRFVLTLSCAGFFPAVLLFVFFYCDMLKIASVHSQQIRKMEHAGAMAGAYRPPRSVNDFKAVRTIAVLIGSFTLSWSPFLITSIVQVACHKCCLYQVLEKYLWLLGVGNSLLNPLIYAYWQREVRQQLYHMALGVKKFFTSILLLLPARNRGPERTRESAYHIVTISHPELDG
# [5] = target: T2, Glucose-dependent insulinotropic receptor (Mus musculus) (UniProt Q7TQP3); experiment: Agonist activity at mouse GPR119 expressed in HEK293 cells assessed as maximal stimulation of cMAP level by cell-based cAMP assay relative to 21; format: functional
# T2 sequence (whole entry): T1 sequence (Q7TQP3 whole entry)
# Mus musculus [6] = experiment: Antidiabetic activity in laen mouse model assessed as reduction in blood glucose level at 30 mg/kg, po up to 60 mins by oral glucose tolerance test; format: functional; details: 1 h
# [7] = Plasma concentration in lean mouse at 30 mg/kg, po after 60 mins; format: ADME, organism-based; set-up: dose 30 mg/kg, route oral
# Mus musculus [8] = experiment: Antidiabetic activity in laen mouse model assessed as reduction in blood glucose level at 10 mg/kg, po up to 60 mins by oral glucose tolerance test; format: functional; details: 1 h
# [9] = Tmax in monkey at 3 mg/kg, po; format: ADME, organism-based, Macaca mulatta; set-up: dose 3 mg/kg, route oral; details: rhesus monkey, in vivo
# [10] = Plasma concentration in lean mouse at 3 mg/kg, po after 60 mins; format: ADME, organism-based; set-up: dose 3 mg/kg, route oral
# Rhesus monkey = experiment: AUC (0 to 24 hrs) in monkey at 3 mg/kg, po; format: ADME, organism-based, Macaca mulatta, Plasma; set-up: time < 24 hr, dose 3 mg/kg, route oral; details: in vivo
# Mus musculus [11] = experiment: Antidiabetic activity in laen mouse model assessed as reduction in blood glucose level at 3 mg/kg, po up to 60 mins by oral glucose tolerance test; format: functional; details: 1 h
# PXR (NR1I2) = target: T3, PXR (NR1I2) (Homo sapiens, UniProt O75469); experiment: Inhibition of human PXR transfected in HepG2 cells at 10 uM; format: cell-based; details: HepG2 cells transfected with human PXR
# T3 sequence (O75469 whole entry): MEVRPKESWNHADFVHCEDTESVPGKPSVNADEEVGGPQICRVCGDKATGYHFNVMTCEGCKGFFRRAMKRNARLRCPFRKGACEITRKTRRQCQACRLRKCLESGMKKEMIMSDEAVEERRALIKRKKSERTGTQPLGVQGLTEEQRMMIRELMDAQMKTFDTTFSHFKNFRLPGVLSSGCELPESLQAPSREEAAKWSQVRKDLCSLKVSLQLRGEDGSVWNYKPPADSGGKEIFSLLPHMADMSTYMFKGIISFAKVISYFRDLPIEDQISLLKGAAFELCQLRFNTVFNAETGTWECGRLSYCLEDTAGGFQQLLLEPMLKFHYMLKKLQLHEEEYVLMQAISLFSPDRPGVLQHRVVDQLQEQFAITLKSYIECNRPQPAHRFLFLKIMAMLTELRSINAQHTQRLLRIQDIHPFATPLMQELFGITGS
# Cytochrome P450 2C9 = Cytochrome P450 2C9 (Homo sapiens, UniProt P11712); experiment: Inhibition of CYP2C9; format: ADME
# [12] = Cmax in monkey at 3 mg/kg, po; format: ADME, organism-based, Macaca mulatta; set-up: dose 3 mg/kg, route oral; details: rhesus monkey, in vivo
# Rattus norvegicus [13] = experiment: Antidiabetic activity in lean anesthetized rat hyperglycemic clamp model assessed as increase in insulin level at 1 mg/kg, iv relative to control
# Cytochrome P450 3A4 = Cytochrome P450 3A4 (Homo sapiens, UniProt P08684); experiment: Inhibition of CYP3A4; format: ADME
# [14] = target: Probable G-protein coupled receptor 160 (Homo sapiens) (UniProt Q9UJ42); experiment: Inhibition of GPCR-1 at 10 uM
# [15] = Plasma concentration in lean mouse at 10 mg/kg, po after 60 mins; format: ADME, organism-based; set-up: dose 10 mg/kg, route oral
# Cytochrome P450 2D6 = Cytochrome P450 2D6 (Homo sapiens, UniProt P10635); experiment: Inhibition of CYP2D6; format: ADME
# Salmonella typhimurium = experiment: Genotoxicity in Salmonella Typhimurium by Ames test; format: toxicity, organism-based; details: salmonella enterica subsp. enterica serovar typhimurium
# hERG (KCNH2) = hERG (KCNH2) (Homo sapiens, UniProt Q12809); experiment: Inhibition of human ERG at 10 uM
# Sequence of hERG (KCNH2) (Q12809 whole entry): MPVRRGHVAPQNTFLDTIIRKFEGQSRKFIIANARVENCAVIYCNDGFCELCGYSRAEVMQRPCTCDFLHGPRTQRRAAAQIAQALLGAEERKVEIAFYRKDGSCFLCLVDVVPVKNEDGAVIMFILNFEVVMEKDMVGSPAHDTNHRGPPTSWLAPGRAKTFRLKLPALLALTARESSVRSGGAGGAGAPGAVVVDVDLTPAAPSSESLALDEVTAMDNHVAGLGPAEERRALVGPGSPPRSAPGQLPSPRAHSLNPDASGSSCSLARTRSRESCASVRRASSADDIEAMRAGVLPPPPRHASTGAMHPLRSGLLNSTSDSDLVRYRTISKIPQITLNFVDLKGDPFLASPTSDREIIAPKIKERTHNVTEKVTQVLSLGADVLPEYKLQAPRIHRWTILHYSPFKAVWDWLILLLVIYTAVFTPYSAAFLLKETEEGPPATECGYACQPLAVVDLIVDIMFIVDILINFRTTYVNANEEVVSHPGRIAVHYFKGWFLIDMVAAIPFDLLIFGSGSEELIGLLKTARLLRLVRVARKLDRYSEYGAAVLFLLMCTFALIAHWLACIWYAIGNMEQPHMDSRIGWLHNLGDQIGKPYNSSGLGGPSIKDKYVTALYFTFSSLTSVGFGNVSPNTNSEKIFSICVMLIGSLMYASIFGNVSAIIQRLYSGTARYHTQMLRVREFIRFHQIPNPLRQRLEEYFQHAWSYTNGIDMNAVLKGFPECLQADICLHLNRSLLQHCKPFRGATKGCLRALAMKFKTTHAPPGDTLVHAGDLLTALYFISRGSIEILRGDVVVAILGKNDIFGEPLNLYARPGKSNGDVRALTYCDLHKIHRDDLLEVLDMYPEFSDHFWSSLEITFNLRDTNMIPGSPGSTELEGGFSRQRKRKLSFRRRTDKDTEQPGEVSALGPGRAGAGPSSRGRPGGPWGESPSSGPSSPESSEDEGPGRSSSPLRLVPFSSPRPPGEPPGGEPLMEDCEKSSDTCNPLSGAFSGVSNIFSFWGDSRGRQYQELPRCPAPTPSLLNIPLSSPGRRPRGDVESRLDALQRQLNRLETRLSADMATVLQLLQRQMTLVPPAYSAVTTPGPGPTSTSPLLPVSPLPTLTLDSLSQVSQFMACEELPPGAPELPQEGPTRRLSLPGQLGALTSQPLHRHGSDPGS
# Sequence of Cytochrome P450 2D6 (P10635 whole entry): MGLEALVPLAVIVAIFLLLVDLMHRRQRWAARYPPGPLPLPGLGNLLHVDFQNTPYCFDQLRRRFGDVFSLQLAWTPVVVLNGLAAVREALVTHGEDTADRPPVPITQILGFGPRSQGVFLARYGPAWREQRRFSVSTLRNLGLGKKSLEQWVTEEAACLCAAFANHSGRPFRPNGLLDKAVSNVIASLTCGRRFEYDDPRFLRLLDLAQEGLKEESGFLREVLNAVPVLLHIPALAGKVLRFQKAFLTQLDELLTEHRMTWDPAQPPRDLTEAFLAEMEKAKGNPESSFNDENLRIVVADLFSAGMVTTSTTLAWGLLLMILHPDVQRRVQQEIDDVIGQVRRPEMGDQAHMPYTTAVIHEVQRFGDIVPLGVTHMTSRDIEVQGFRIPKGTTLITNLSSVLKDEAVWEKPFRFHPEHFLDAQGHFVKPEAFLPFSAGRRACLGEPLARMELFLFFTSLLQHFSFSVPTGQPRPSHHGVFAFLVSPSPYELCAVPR
# Sequence of Cytochrome P450 3A4 (P08684 whole entry): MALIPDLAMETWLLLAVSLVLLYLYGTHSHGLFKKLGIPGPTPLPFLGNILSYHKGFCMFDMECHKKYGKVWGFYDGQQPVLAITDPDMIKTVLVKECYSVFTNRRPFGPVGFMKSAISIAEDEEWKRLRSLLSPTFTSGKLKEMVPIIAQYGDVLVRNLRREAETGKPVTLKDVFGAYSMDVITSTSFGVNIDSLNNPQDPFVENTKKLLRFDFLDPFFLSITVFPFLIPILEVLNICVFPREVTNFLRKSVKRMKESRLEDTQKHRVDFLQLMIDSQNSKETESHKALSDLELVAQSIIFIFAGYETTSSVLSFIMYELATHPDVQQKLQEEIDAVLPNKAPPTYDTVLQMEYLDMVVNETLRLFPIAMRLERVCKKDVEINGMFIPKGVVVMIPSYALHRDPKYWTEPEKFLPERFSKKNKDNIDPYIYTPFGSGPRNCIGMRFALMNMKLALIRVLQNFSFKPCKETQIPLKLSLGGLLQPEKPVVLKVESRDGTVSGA
# Sequence of Probable G-protein coupled receptor 160 (Homo sapiens) (Q9UJ42 whole entry): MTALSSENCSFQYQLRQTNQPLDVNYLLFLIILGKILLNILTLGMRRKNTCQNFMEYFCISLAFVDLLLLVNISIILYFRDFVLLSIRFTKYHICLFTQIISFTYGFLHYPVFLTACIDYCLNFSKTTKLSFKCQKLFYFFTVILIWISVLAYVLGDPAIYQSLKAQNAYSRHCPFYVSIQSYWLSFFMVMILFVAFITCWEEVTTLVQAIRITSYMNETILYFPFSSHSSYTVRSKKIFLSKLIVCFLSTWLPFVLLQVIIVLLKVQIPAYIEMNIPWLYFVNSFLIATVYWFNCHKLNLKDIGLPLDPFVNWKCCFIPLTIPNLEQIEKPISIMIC
# Sequence of Cytochrome P450 2C9 (P11712 whole entry): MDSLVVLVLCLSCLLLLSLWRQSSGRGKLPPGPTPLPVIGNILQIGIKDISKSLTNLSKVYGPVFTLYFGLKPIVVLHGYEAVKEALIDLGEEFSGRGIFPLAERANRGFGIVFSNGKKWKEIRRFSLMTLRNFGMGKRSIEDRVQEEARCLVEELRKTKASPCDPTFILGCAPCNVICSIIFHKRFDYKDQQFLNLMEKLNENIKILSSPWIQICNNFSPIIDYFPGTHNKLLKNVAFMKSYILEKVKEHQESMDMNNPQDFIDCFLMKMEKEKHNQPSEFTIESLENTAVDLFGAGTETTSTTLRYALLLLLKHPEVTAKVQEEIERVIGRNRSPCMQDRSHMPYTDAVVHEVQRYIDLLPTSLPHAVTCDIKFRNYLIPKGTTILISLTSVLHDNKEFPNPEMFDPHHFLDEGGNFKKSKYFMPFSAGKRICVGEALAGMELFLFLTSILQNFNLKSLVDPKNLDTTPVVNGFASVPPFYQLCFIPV
SMILES,pEC50 [4],Activity [5] [%],further results
"Cc1ncccc1Oc1ncnc(O[C@H]2CC3CC[C@@H](C2)N3S(=O)(=O)C2CC2)c1C (single isomer, unassigned)",7.20,76,AUC (Rattus norvegicus [1]): 0.879 µM·h; concentration at 1 h [2]: 2330 nM; Blood glucose (% of vehicle) (Mus musculus [3]): 87%
"Cc1ncccc1Oc1ncnc(O[C@H]2CC3CC[C@@H](C2)N3C(=O)OC2(C)CC2)c1C (single isomer, unassigned)",< 4.52,12,AUC (Rattus norvegicus [1]): 2.84 µM·h; concentration at 1 h [2]: 130 nM; Blood glucose (% of vehicle) (Mus musculus [3]): 95%
"Cc1c(Nc2ccc(F)cc2C#N)ncnc1O[C@H]1CC2CC[C@@H](C1)N2S(=O)(=O)C1CC1 (single isomer, unassigned)",6.09,110,
"CCCCS(=O)(=O)N1C2CC[C@H]1C[C@@H](Oc1ncnc(Oc3cccnc3C)c1C)C2 (single isomer, unassigned)",7.59,29,
Cc1ncccc1Oc1ncnc(O[C@H]2C[C@@H]3CC(F)(F)[C@@H](C2)N3S(=O)(=O)C2CC2)c1C,6.66,52,
"Cc1c(Oc2ccccc2C#N)ncnc1O[C@H]1CC2CC[C@@H](C1)N2S(=O)(=O)C1CC1 (single isomer, unassigned)",7.17,74,AUC (Rattus norvegicus [1]): 0.461 µM·h; concentration at 1 h [2]: 290 nM; Blood glucose (% of vehicle) (Mus musculus [3]): 88%
CC(C)OC(=O)N1CCC(Oc2cc(Oc3ccc(S(C)(=O)=O)cc3F)ncn2)CC1,6.39,100,AUC (Rattus norvegicus [1]): 20.7 µM·h; concentration at 1 h [2]: 480 nM; Blood glucose (% of vehicle) (Mus musculus [3]): 78%; inhibition in vivo at 30 mg/kg (Mus musculus [6]): 47%; concentration at 1 h [7]: 12700 nM
"Cc1c(Oc2ccc(Cl)cc2C#N)ncnc1O[C@H]1CC2CC[C@@H](C1)N2S(=O)(=O)C1CC1 (single isomer, unassigned)",6.54,44,
"Cc1ncccc1Oc1ncnc(O[C@@H]2CC3CC[C@@H](C2)N3C(=O)OC(C)(C)C)c1C (single isomer, unassigned; 20f)",6.52,20,
Cc1ncccc1Oc1ncnc(O[C@H]2C[C@@H]3CC(F)[C@@H](C2)N3S(=O)(=O)C2CC2)c1C (some centres not stated),6.15,74,
"Cc1ncccc1Oc1ncnc(O[C@H]2CC3CC[C@@H](C2)N3C(=O)OCC(F)(F)F)c1C (single isomer, unassigned)",4.98,20,
"Cc1ncccc1Oc1ncnc(O[C@H]2CC3CC[C@@H](C2)N3S(=O)(=O)c2ccc(Cl)s2)c1C (single isomer, unassigned)",6.84,77,
"Cc1ncccc1Oc1ncnc(O[C@H]2CC3CC[C@@H](C2)N3S(=O)(=O)c2ccc(F)cc2)c1C (single isomer, unassigned)",6.46,78,
"Cc1ncccc1Oc1ncnc(O[C@H]2CC3CC[C@@H](C2)N3C(=O)OCC2CC2)c1C (single isomer, unassigned)",5.12,33,
"Cc1ncccc1Oc1ncnc(O[C@H]2CC3CC[C@@H](C2)N3C(=O)OC(C)C)c1C (single isomer, unassigned)",7.26,20,AUC (Rattus norvegicus [1]): 0.175 µM·h; concentration at 1 h [2]: 193 nM; Blood glucose (% of vehicle) (Mus musculus [3]): 100%
"CCCS(=O)(=O)N1C2CC[C@H]1C[C@@H](Oc1ncnc(Oc3cccnc3C)c1C)C2 (single isomer, unassigned)",7.28,49,
"Cc1ncccc1Oc1ncnc(O[C@H]2CC3CC[C@@H](C2)N3S(=O)(=O)CC(F)(F)F)c1C (single isomer, unassigned)",6.18,62,
"CCOC(=O)N1C2CC[C@H]1C[C@@H](Oc1ncnc(Oc3cccnc3C)c1C)C2 (single isomer, unassigned)",6.49,25,
"Cc1ncccc1Oc1ncnc(O[C@H]2CC3C=C[C@@H](C2)N3S(=O)(=O)C2CC2)c1C (single isomer, unassigned)",6.62,78,
"Cc1c(Nc2ccc(C#N)cc2Cl)ncnc1O[C@H]1CC2CC[C@@H](C1)N2S(=O)(=O)C1CC1 (single isomer, unassigned)",6.85,110,AUC (Rattus norvegicus [1]): 2.17 µM·h; inhibition in vivo at 10 mg/kg (Mus musculus [8]): 30%; concentration at 1 h [2]: 275 nM; Tmax [9]: 4.5 h; Blood glucose (% of vehicle) (Mus musculus [3]): 91%; concentration at 1 h [10]: 400 nM; AUC (Rhesus monkey): 16.5 µM·h; inhibition in vivo at 30 mg/kg (Mus musculus [6]): 39%; inhibition in vivo at 3 mg/kg (Mus musculus [11]): 28%; inhibition at 10 µM (PXR (NR1I2)): 0.09%; pIC50 (Cytochrome P450 2C9): < 4.70; Cmax [12]: 997 nM; Activity (Rattus norvegicus [13]): Active; pIC50 (Cytochrome P450 3A4): < 4.70; inhibition [14]: < 30%; concentration at 1 h [15]: 800 nM; pIC50 (Cytochrome P450 2D6): < 4.70; Activity (Salmonella typhimurium): Non-toxic; inhibition at 10 µM (hERG (KCNH2)): 9%; concentration at 1 h [7]: 1400 nM
"Cc1c(Nc2ccc(C#N)cc2F)ncnc1O[C@H]1CC2CC[C@@H](C1)N2S(=O)(=O)C1CC1 (single isomer, unassigned)",6.66,84,Blood glucose (% of vehicle) (Mus musculus [3]): 95%
"Cc1c(Nc2ccccc2C#N)ncnc1O[C@H]1CC2CC[C@@H](C1)N2S(=O)(=O)C1CC1 (single isomer, unassigned)",6.74,80,
"Cc1c(Nc2ccc(S(C)(=O)=O)cc2F)ncnc1O[C@H]1CC2CC[C@@H](C1)N2S(=O)(=O)C1CC1 (single isomer, unassigned)",6.19,88,
"Cc1ncccc1Nc1ncnc(O[C@H]2CC3CC[C@@H](C2)N3S(=O)(=O)C2CC2)c1C (single isomer, unassigned)",5.70,110,
"Cc1ncccc1Oc1ncnc(O[C@H]2CC3CC[C@@H](C2)N3S(=O)(=O)CCC(F)(F)F)c1C (single isomer, unassigned)",6.60,62,
Cc1ncccc1Oc1ncnc(O[C@H]2C[C@H]3CC[C@@H](C2)N3C(=O)OC(C)C2CC2)c1C (some centres not stated),7.23,31,
"Cc1c(Oc2ccccc2Cl)ncnc1O[C@H]1CC2CC[C@@H](C1)N2S(=O)(=O)C1CC1 (single isomer, unassigned)",7.09,58,
"Cc1ncccc1Oc1ncnc(O[C@H]2CC3CC[C@@H](C2)N3S(=O)(=O)CC(C)C)c1C (single isomer, unassigned)",7.15,69,AUC (Rattus norvegicus [1]): 0 µM·h
"Cc1ncccc1Oc1ncnc(O[C@H]2CC3C=C[C@@H](C2)N3C(=O)OC(C)C)c1C (single isomer, unassigned)",7.28,48,
